# Structures can show the parent of a compound that is named as a salt. Where two headings read alike, the source gives them in different places.
# Columns and labels:
# Type in all cases: biochemical
# [1] = biological target: T1, human JAK1 (a.a. 837-1142) (Homo sapiens, UniProt P23458); test: In vitro JAK kinase assay (HTRF, phosphorylation of a biotinylated peptide), JAK1; conditions: read-out: JAK1 IC50
# T1 construct: human JAK1 (a.a. 837-1142); His tag (N); made in house; host or cells: insect cells (baculovirus)
# Summary of the method: (§1)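 Kinase reactions ran at room temperature for 1 h with ATP matched per isoform (JAK1 90 μM, JAK2 30 μM, JAK3 3 μM). After an EDTA stop, the phosphorylated biotin-peptide was read by HTRF using Eu-Py20 and SA-APC after 40 min binding.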
# [2] = biological target: T2, human JAK2 (a.a. 828-1132) (Homo sapiens, UniProt O60674); test: In vitro JAK kinase assay (HTRF, phosphorylation of a biotinylated peptide), JAK2
# T2 construct: JAK2 (a.a. 828-1132); His tag (N); made in house; host or cells: insect cells (baculovirus)
# Summary of the method: as §1
# [3] = biological target: T3, human JAK3 (a.a. 781-1124) (Homo sapiens, UniProt P52333); test: In vitro JAK kinase assay (HTRF, phosphorylation of a biotinylated peptide), JAK3
# T3 construct: JAK3 (a.a. 781-1124); His tag (N); made in house; host or cells: insect cells (baculovirus)
# Summary of the method: as §1
# TYK2 = TYK2 (Homo sapiens, UniProt P29597); test: TYK2 kinase inhibition (Table A1)
# [4] = biological target: T4, Recombinant Human Anaplastic Lymphoma Kinase (Homo sapiens, UniProt Q9UM73); test: ALK HTRF kinase assay
# T4 construct: purchased Invitrogen, Carlsbad, Calif
# Summary of the method: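 Recombinant human ALK with biotinylated peptide substrate; phosphorylation detected by HTRF using Eu-labelled anti-phosphotyrosine antibody and streptavidin-allophycocyanin. IC50 from a sigmoidal fit with Hill slope.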
# [5] = method AA1 (90 μM ATP) or AA2 (1000 μM ATP), not stated per value
# [6] = method AA1 (30 μM ATP) or AA2 (1000 μM ATP), not stated per value
# [7] = method AA1 (3 μM ATP) or AA2 (1000 μM ATP), not stated per value
# [8] = compound at 500 nM or 1 mM, 90 μM ATP
# T3 sequence (P52333 781-1124): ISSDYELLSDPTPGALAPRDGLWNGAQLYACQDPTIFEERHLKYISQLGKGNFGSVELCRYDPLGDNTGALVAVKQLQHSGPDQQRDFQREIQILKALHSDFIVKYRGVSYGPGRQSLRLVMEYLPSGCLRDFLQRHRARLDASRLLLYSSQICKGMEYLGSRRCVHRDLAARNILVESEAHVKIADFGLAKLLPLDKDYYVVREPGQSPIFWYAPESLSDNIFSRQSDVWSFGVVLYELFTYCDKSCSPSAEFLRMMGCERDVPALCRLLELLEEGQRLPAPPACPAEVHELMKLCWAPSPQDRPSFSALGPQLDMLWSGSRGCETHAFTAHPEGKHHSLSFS
# T1 sequence (P23458 849-1154): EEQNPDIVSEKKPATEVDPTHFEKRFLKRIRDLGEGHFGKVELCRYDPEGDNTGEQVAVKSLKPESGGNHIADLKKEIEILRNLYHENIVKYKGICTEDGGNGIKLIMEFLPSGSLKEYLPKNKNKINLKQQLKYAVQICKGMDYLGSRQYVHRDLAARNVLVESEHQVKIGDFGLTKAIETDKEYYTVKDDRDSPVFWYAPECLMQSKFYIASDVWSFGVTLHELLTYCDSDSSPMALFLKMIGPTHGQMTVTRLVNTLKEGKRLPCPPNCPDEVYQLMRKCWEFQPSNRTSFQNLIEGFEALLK
# T4 sequence (Q9UM73 19-1620): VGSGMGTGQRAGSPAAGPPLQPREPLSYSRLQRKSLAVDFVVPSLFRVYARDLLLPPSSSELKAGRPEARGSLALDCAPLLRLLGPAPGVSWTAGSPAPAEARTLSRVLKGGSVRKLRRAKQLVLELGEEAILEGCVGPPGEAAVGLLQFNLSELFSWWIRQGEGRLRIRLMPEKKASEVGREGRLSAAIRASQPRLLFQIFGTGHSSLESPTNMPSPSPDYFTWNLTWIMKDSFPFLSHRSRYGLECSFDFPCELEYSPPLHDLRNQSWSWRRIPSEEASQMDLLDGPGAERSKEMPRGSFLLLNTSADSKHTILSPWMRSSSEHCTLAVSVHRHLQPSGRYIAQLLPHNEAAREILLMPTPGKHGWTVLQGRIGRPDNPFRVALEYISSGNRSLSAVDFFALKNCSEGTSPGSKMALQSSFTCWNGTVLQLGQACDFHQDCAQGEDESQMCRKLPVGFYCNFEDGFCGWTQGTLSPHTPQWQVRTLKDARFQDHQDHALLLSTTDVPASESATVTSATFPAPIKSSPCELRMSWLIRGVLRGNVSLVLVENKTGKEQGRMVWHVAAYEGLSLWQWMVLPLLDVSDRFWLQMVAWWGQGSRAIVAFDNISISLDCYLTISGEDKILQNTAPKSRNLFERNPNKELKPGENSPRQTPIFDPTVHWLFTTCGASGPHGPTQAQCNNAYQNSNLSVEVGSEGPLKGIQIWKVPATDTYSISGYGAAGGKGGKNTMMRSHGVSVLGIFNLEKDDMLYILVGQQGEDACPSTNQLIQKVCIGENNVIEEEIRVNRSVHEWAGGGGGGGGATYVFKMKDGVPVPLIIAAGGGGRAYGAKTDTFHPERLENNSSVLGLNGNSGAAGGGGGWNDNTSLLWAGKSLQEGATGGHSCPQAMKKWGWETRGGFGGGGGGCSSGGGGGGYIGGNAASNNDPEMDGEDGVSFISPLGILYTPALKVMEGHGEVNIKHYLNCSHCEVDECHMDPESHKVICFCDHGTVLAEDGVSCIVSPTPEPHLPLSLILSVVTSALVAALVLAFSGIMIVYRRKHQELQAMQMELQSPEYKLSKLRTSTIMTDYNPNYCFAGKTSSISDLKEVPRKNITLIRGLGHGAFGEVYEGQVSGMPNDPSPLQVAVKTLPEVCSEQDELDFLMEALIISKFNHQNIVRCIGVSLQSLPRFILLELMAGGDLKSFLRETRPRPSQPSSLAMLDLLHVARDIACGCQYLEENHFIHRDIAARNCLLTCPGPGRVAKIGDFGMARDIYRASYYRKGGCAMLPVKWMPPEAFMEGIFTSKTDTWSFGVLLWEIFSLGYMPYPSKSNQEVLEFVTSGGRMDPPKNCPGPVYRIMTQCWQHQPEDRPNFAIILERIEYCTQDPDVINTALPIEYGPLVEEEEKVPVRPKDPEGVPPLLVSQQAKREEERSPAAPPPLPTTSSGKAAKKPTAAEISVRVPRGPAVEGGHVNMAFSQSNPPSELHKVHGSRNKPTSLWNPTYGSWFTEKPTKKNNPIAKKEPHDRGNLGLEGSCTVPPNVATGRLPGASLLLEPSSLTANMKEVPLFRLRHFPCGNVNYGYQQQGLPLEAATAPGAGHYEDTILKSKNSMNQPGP
# T2 sequence (O60674 828-1132): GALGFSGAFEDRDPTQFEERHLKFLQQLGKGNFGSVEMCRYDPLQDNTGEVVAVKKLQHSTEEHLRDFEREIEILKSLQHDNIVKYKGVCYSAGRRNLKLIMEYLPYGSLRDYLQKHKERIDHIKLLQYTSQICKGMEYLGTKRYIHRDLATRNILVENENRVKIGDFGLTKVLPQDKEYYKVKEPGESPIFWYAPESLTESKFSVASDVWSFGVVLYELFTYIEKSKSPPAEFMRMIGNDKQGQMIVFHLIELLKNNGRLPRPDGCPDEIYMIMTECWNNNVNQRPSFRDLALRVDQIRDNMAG
# Chain of TYK2 (P29597 whole entry): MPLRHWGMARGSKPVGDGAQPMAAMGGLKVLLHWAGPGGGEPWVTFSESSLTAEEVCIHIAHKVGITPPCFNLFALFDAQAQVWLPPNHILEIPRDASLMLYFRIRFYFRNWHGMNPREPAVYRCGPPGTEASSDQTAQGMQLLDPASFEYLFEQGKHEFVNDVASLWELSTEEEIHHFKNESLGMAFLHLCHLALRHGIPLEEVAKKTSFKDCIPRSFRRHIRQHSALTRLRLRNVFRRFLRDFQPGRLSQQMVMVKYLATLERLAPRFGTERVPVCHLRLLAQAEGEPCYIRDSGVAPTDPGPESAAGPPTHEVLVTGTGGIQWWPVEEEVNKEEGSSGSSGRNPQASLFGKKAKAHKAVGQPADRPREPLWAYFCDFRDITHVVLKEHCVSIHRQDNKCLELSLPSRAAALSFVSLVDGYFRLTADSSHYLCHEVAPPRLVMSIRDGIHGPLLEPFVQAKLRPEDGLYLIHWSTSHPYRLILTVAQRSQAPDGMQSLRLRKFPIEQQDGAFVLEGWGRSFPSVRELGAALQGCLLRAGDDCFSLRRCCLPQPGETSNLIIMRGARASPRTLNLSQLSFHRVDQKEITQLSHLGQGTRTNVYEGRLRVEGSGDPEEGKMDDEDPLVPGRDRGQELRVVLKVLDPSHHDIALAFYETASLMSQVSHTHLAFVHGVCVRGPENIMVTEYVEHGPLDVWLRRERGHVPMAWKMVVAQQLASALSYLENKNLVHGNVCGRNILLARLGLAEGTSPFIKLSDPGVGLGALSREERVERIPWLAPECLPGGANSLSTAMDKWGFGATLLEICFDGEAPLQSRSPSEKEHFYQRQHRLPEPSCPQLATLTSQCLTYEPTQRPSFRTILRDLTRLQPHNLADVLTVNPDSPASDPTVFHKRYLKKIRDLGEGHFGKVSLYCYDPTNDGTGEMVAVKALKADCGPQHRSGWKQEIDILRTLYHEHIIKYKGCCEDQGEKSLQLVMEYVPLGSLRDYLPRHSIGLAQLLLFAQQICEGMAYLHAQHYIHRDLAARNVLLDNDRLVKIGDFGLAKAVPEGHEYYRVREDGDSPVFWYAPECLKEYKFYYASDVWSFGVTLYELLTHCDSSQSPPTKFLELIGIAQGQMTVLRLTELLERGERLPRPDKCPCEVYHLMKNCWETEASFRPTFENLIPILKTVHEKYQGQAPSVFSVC
structure (smiles),measurement,setting,value
"COCC(=O)Nc1ccc2cc1CCc1cccc(c1)Nc1ncc(Cl)c(n1)N2 [Example B28, N-[6-Chloro-2,4,8,22-tetraazatetracyclo[14.3.1.1(3,7).1(9,13)]docosa-1(20), 3(22),4,6,9(21),10,12,16,18-nonaen-12-yl]-2-methoxyacetamide trifluoroacetate]",IC50,[1]; Table B1,8.2 nM
same,IC50,[2]; Table B1,4.1 nM
same,IC50,[3]; Table B1,10 nM
same,IC50,TYK2; Table B1,20 nM
same,IC50,"[4]; Table B1, cells without percent sign",1800 nM
"O=C1NCc2cccc(c2)Nc2nc(ncc2Cl)Nc2cccc1c2 [Example C5, 6-Chloro-2,4,8,15,23-pentaazatetracyclo[15.3.1.1(3,7).1(9,13)]tricosa-1(21),3(23),4,6,9(22),10,12,17,19-nonaen-16-one hydrochloride]",IC50,[1],> 1000 nM
same,IC50,[2],> 1000 nM
same,IC50,[3],> 1000 nM
same,IC50,TYK2,> 1000 nM
same,IC50,[4],> 1000 nM
"Clc1cnc2nc1Nc1cccc(c1)NCCOc1cccc(c1)N2 [Example D72, 6-Chloro-17-oxa-2,4,8,14,24-pentaazatetracyclo[16.3.1.1(3,7).1(9,13)]tetracosa-1(22),3(24),4,6,9(23),10,12,18,20-nonaene bis(trifluoroacetate)]",IC50,[1]; Table D1,12 nM
same,IC50,[2]; Table D1,2.2 nM
same,IC50,[3]; Table D1,7.4 nM
same,IC50,TYK2; Table D1,6.9 nM
same,IC50,"[4]; Table D1, 90 μM ATP",772 nM
"Clc1cnc2nc1Nc1cccc(c1)SCCc1cccc(c1)N2 [Example D18, 6-Chloro-14-thia-2,4,8,23-tetraazatetracyclo[15.3.1.1(3,7).1(9,13)]tricosa-1(21),3(23),4,6,9(22),10,12,17,19-nonaene trifluoroacetate]",IC50,[1]; Table D1,5.4 nM
same,IC50,[2]; Table D1,6.6 nM
same,IC50,[3]; Table D1,24 nM
same,IC50,TYK2; Table D1,19 nM
same,IC50,"[4]; Table D1, 90 μM ATP",327 nM
"O=C(Nc1ccc2cc1CCc1cccc(c1)Nc1ncc(Cl)c(n1)N2)C1CCN(C(=O)Nc2ccccc2)CC1 [Example A36, N(4)-[6-Chloro-2,4,8,22-tetraazatetracyclo[14.3.1.1(3,7).1(9,13)]docosa-1(20),3(22),4,6,9(21),10,12,16,18-nonaen-12-yl]-N(1)-phenylpiperidine-1,4-dicarboxamide trifluoroacetate]",IC50,[1]; [5],2.4 nM
same,IC50,[2]; [6],6.7 nM
same,IC50,[3]; [7],26 nM
same,IC50,TYK2,27 nM
same,ALK % of inhibition at a concentration of 500 nM or 1 mM,[4]; [8],48%
"O=C(Nc1ccc2cc1CCc1cncc(c1)Nc1ncc(Cl)c(n1)N2)N1CCNCC1 [Example B285, N-[6-Chloro-2,4,8,18,22-pentaazatetracyclo[14.3.1.1(3,7).1(9,13)]docosa-1(20),3(22),4,6,9(21),10,12,16,18-nonaen-12-yl]piperazine-1-carboxamidetrihydrochloride]",IC50,[1]; Table B1,100 nM
same,IC50,[2]; Table B1,> 200 nM
same,IC50,[3]; Table B1,> 200 nM
same,IC50,TYK2; Table B1,> 200 nM
same,ALK % of inhibition at a concentration of 500 nM or 1 mM,"[4]; compound at a concentration of 500 nM or 1 mM (not specified), cells shown as percentage",38%
"Clc1cnc2nc1Nc1cccc(c1)OCCc1cc(cc(-c3cnc(N4CCNCC4)nc3)c1)N2 [Example D31, 6-Chloro-19-(2-piperazin-1-ylpyrimidin-5-yl)-14-oxa-2,4,8,23-tetraazatetracyclo[15.3.1.1(3,7).1(9,13)]tricosa-1(21),3(23),4,6,9(22),10,12,17,19-nonaene tris(trifluoroacetate)]",IC50,[1]; Table D1,0.9 nM
same,IC50,[2]; Table D1,0.2 nM
same,IC50,[3]; Table D1,6.7 nM
same,IC50,TYK2; Table D1,2 nM
same,IC50,"[4]; Table D1, 90 μM ATP",104 nM
"Clc1cnc2nc1Nc1cccc(c1)CSc1cccc(c1)N2 [Example D2, 6-Chloro-15-thia-2,4,8,22-tetraazatetracyclo[14.3.1.1(3,7).1(9,13)]docosa-1(20),3(22),4,6,9(21),10,12,16,18-nonaene trifluoroacetate]",IC50,[1]; Table D1,19 nM
same,IC50,[2]; Table D1,7.3 nM
same,IC50,[3]; Table D1,13 nM
same,IC50,TYK2; Table D1,25 nM
same,IC50,"[4]; Table D1, 90 μM ATP",774 nM
"N#Cc1ccccc1N1CCC(CC(=O)Nc2ccc3cc2CCc2cncc(c2)Nc2ncc(Cl)c(n2)N3)CC1 [Example A220, N-[6-Chloro-2,4,8,18,22-pentaazatetracyclo[14.3.1.1(3,7).1(9,13)]docosa-1(20),3(22),4,6,9(21),10,12,16,18-nonaen-12-yl]-2-[1-(2-cyanophenyl)piperidin-4-yl]acetamide tris(trifluoroacetate)]",IC50,[1]; [5],13 nM
same,IC50,[2]; [6],180 nM
same,IC50,[3]; [7],> 200 nM
same,IC50,TYK2,190 nM
same,ALK % of inhibition at a concentration of 500 nM or 1 mM,[4]; [8],18%
